Laboratory results: PubChem BioAssay (NCI)
Several values for one entry are separate records, joined by “and”; a condition that tells them apart may be missing. Identical values can stand only once.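 Growth conditions: 96-well plates. Treatment: test compound, 48 hours, 5 concentrations. Analysis: linear interpolation between bracketing concentrations; unreached endpoints set to highest concentration. At the GI50, growth is halved. Definition used: TGI = concentration required for complete inhibition of growth.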

Experiments:
Test in all cases: inhibition of tumour cell growth, NCI panel, 48 h
[1] = tested on: M14 melanoma
[2] = tested on: HOP-62 NSCLC
[3] = tested on: MDA-MB-435
[4] = tested on: SW-620 colon
[5] = tested on: TK-10 renal
[6] = tested on: OVCAR-4 ovarian
[7] = tested on: DU-145 prostate
[8] = tested on: MOLT-4 leukemia
[9] = tested on: EKVX NSCLC
[10] = tested on: A498 renal

Row | Compound | TGI [1] [µM] | TGI [2] | TGI [3] [µM] | TGI [4] [µM] | TGI [5] [µM] | TGI [6] | TGI [7] | TGI [8] [µM] | TGI [9] | TGI [10] [µM] | GI50 [1] | GI50 [2] | GI50 [8]
1 | COc1cc(C2c3cc4c(cc3OC(N3CCOCC3)C2C)OCO4)cc(OC)c1OC (stereo not drawn) | 44.1 | 52.8 µM | 0.549 | > 100 | 63.9 | > 100 µM | > 49.6 µM | > 38.2 | > 100 µM | – | – | – | –
2 | Cc1cc(NS(=O)(=O)c2ccc(NC(=O)c3cccc4c(NNc5ccc(S(N)(=O)=O)cc5)c5ccccc5nc34)cc2)no1 | > 100 | > 100 µM | > 100 | > 100 | > 100 | > 100 µM | > 100 µM | 87.9 | > 100 µM | – | – | – | –
3 | CN(C)C(=S)/N=c1\ssc(=S)n1Cc1ccccn1 | > 48.2 | > 100 µM | – | > 100 | > 100 | > 52.3 µM | – | > 100 | > 100 µM | > 81.4 | – | – | –
4 | COc1cc(C(c2cc(OC)c(OC)c(OC)c2)N2C(=O)CCC2C(=O)O)cc(OC)c1OC (stereo not drawn) | > 100 | > 100 µM | > 100 | > 100 | – | > 100 µM | > 100 µM | > 100 | > 100 µM | > 100 | – | – | –
5 | COC(=O)C(C(=O)C(=O)Nc1ccc(C)cc1C)c1nc2ccc([N+](=O)[O-])cc2[nH]c1=O (stereo not drawn) | > 100 | > 100 µM | – | > 100 | > 100 | > 100 µM | – | > 100 | > 100 µM | > 100 | – | – | –
6 | C[N+](C)(N)Cc1csc(-c2ccc(Cl)cc2)n1 | > 100 | > 100 µM | > 100 | > 100 | > 100 | > 100 µM | > 100 µM | – | > 100 µM | > 100 | – | – | –
7 | CCc1c(-c2coc(CC/C(C)=C/c3ccccc3)n2)oc(OC)c(C)c1=O | > 61.4 | > 100 µM | – | > 44.7 | > 100 | > 55.5 µM | – | > 100 | > 100 µM | > 100 | – | – | –
8 | O=c1[nH]c2cc([N+](=O)[O-])c(N(CCO)CCO)c([N+](=O)[O-])c2[nH]1 | 89 | > 100 µM | 91.7 | > 100 | – | > 100 µM | > 100 µM | 91.7 | 54.4 µM | 66 | – | – | –
9 | CC1(C)N=C(/C(C#N)=[N+](/[O-])C(=O)c2ccccc2)C(C)(C)N1O | > 100 | > 100 µM | > 100 | > 100 | > 100 | > 100 µM | > 100 µM | > 100 | > 100 µM | – | – | – | –
10 | CNc1nc(=O)c(C#N)c(-c2ccc(C)cc2)s1 | > 100 | – | > 100 | > 100 | > 100 | > 100 µM | > 100 µM | > 100 | > 100 µM | – | – | – | –
11 | CCC(=O)n1c(=O)n(-c2ccc([N+](=O)[O-])cc2)c(=O)n1C(=O)CC | > 100 | > 100 µM | > 100 | > 100 | > 100 | > 100 µM | > 100 µM | > 100 | > 100 µM | – | – | – | –
12 | CCCCCCCCCCOC1C(C(C)OCCCN(C)C)OC2OC3(CCCCC3)OC21 (stereo not drawn) | 10.2 | 31.4 µM | 30.3 | 27.1 | 38.6 | 27.5 µM | 31.2 µM | 30.6 | 33 µM | – | – | – | –
13 | COC(=O)C(Cc1ccccc1)NC(=O)C(CCCN=C(N)N)NC(=O)OCc1ccccc1 (stereo not drawn) | > 100 | > 100 µM | > 100 | > 100 | > 100 | > 100 µM | > 100 µM | > 100 | > 100 µM | – | – | – | –
14 | N=C(N)Cn1cnc2ccccc21 | > 100 | > 100 µM | – | > 100 | > 100 | – | – | > 100 | > 100 µM | > 100 | – | – | –
15 | C[n+]1c(-c2ccc(/C=N/Nc3n[nH]c(=S)n3N/N=C/c3ccc(-c4cn5ccccc5[n+]4C)cc3)cc2)cn2ccccc21 | > 100 | > 100 µM | > 100 | > 100 | > 100 | > 100 µM | – | > 100 | > 100 µM | – | – | – | –
16 | CCN(CC)CCNc1ccc2nnn3c4ccc(OC(C)=O)cc4c(=O)c1c23 | 21 | 12.5 µM | 18 | 13.6 | 16.7 | 8.73 µM | 15.1 µM | – | 19.3 µM | 21 | – | – | –
17 | C=CC[C@@]1(C#N)C[C@H](C[C@]2(C#N)C[C@H](CCl)OC(C)(C)O2)OC(C)(C)O1 | > 100 | > 100 µM | – | > 100 | > 100 | > 100 µM | – | > 100 | > 100 µM | > 100 | – | – | –
18 | O=c1cc(-c2ccc[nH]2)[nH]c2cc3c(cc12)OCO3 | > 100 | 93.5 µM | – | > 100 | > 100 | 56 µM | – | > 100 | > 100 µM | 74.3 | – | – | –
19 | CN(c1ccccc1Cl)S(=O)(=O)c1ccccc1 | > 100 | > 100 µM | > 100 | > 100 | > 100 | > 100 µM | > 100 µM | > 100 | > 100 µM | – | – | – | –
20 | COc1ccc(-c2c(C(C)=O)c(-c3ccccc3)n(C3OC(COC(C)=O)C(OC(C)=O)C(OC(C)=O)C3OC(C)=O)c(=S)c2C#N)cc1O (stereo not drawn) | > 100 | 45.6 µM and > 100 µM | > 100 | > 100 | – | 98.8 µM and > 100 µM | 94.3 µM and > 100 µM | > 100 | 79.3 µM and > 100 µM | > 100 | 36.2 µM and 93 µM | 20.1 µM and > 100 µM | 18.2 µM and 52.8 µM
21 | CC(=N\N=C\c1ccccn1)/C(C)=N/N=C/c1ccccn1 | > 100 | > 100 µM | > 100 | > 100 | > 100 | > 100 µM | > 100 µM | – | > 100 µM | > 100 | – | – | –
